One experiment deals with NAALADase (Homo sapiens, UniProt Q04609). Nature of the experiment: In vitro inhibition of NAALADase activity.
Sequence of NAALADase (Q04609 whole entry): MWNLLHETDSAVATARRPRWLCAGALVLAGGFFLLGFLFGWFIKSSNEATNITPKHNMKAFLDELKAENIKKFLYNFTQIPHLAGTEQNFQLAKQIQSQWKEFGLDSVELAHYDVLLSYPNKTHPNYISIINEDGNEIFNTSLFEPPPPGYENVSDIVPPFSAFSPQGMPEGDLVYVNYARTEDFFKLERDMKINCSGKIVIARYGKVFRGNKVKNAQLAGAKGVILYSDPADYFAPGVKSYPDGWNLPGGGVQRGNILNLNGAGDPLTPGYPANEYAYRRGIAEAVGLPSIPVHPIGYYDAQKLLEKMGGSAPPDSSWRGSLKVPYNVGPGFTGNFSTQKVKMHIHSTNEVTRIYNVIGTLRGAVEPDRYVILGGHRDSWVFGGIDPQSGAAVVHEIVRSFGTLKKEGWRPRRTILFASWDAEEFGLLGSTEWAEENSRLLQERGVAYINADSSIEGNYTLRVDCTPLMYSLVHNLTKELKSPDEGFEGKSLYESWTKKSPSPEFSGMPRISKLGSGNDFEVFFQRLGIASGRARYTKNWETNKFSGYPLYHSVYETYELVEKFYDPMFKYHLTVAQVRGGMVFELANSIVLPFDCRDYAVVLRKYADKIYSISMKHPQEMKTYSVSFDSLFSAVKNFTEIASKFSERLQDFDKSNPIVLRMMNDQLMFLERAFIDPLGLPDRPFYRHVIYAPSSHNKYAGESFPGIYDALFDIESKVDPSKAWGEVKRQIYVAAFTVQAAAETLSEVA
Details: not given
The experiment is classed as biochemical.
One may read the Ki as a dissociation constant, usually derived from enzyme kinetics or from competition with a known ligand. The low end stands for higher affinity, the high end for lower affinity. `O=C(O)c1cc(OCCCS)cc(C(=O)O)c1` [5-(3-mercaptopropoxy)-1,3-benzenedicarboxylic acid] came in with a Ki of 3300 nM. Molecule `O=C(O)c1ccc(C(=O)c2ccc(Oc3ccc(C(=O)O)c(C(=O)O)c3)cc2)c(C(=O)O)c1` [4-[4-(2,4-dicarboxybenzoyl)phenoxy]-1,2-benzenedicarboxylic acid] returned a Ki of 1170 nM.

Molecule `O=C(Cc1cc(C(=O)O)cc(C(=O)O)c1)NO` [5-[2-(hydroxyamino)-2-oxoethyl]-1,3-benzenedicarboxylic acid] came in with a Ki of 12000 nM.

`O=C(O)c1cc(CS)cc(C(=O)O)c1` [5-mercaptomethyl-1,3-benzenedicarboxylic acid] yielded a Ki of 6500 nM. `O=C(O)c1cc(CCS)cc(C(=O)O)c1` [5-(2-mercaptoethyl)-1,3-benzenedicarboxylic acid] came in with a Ki of 5100 nM. `O=C(O)CNc1cc(C(=O)O)cc(C(=O)O)c1` [5-[(carboxymethyl)amino]-1,3-benzenedicarboxylic acid] had a Ki of 100000 nM. This Ki is about 20-fold higher than that of the molecule before.

The same experiment, now with this note: IC50.
By IC50 is commonly meant the concentration at which inhibition is half-maximal. `O=C(NO)c1ccccc1O` [2,N-Dihydroxy-benzamide] displayed an IC50 not below 100000 nM.

The experiment is the same for the next values; noted with them: read-out: IC50.
Regarding `O=C(O)c1cccc(CC(CCCS)C(=O)O)c1` (stereo not drawn) [3-carboxy-alpha-(3-mercaptopropyl)-benzenepropanoic acid], the IC50 was determined as 17 nM.

On to `O=C(O)c1cc(OCc2ccccc2)ccc1CCS` [2-(2-mercaptoethyl)-5-(phenylmethoxy)-benzoic acid], for which the IC50 amounted to 380 nM. Same read-out and setting: under `O=C(CSCCCC(Cc1cc(OCc2ccccc2)cc(C(=O)O)c1)C(=O)O)NO` (centres unmarked) [3-Benzyloxy-5-(2-carboxy-5-hydroxycarbamoylmethyl-sulfanylpentyl)-benzoic acid] stands 2570 nM; under `COc1cc(OC)cc(OC(CCCS)C(=O)O)c1` (centres unmarked) [2-(3,5-dimethoxyphenoxy)-5-mercapto-pentanoic acid], 16100 nM; under `O=C(CSCC(Cc1cccc(C(=O)O)c1)C(=O)O)NO` (centres unmarked) [3-(2-Carboxy-3-hydroxycarbamoylmethyl-sulfanylpropyl)-benzoic acid], 3070 nM. Still for that read-out and setting: next, `O=C(O)c1cccc(-c2ccc(CS)cc2C(=O)O)c1` [4-(mercaptomethyl)-[1,1′-biphenyl]-2,3′-dicarboxylic acid]: 76 nM; `O=C(O)c1ccc(CNC(=O)c2cc(C(=O)O)cc(C(=O)NO)c2)cc1`: 2780 nM. The same measure, in the same setting: next, `O=C(NO)c1cc(OCC(F)(F)F)ccc1OCC(F)(F)F` [N-Hydroxy-2,5-bis-(2,2,2-trifluoro-ethoxy)-benzamide]: not below 100000 nM; `O=C(O)c1cc(CC(CCCS)C(=O)O)cc([N+](=O)[O-])c1` (stereo not drawn) [3-carboxy-alpha-(3-mercaptopropyl)-5-nitro-benzenepropanoic acid]: 3 nM. Consider `N#Cc1ccc(COc2ccc(C(=O)NO)cc2)cc1` [4-(4-Cyano-benzyloxy)-N-hydroxy-benzamide], for which the 50% inhibitory concentration (IC50) came to 14200 nM. On the same count and under the same terms, under `CC(C)(C)c1cc(COc2cccc(CCS)c2C(=O)O)cc(C(=O)O)c1` [2-[[3-carboxy-5-(1,1-dimethylethyl)phenyl]methoxy]-6-(2-mercaptoethyl)-benzoic acid] stands 23.7 nM; under `O=C(O)c1c(CCS)cccc1OCc1ccccc1Cl` [2-[(2-chlorophenyl)methoxy]-6-(2-mercaptoethyl)-benzoic acid], 160 nM. Still for that read-out and setting: next, `COc1cc(CC(CCCS)C(=O)O)cc(C(=O)O)c1` (stereo not drawn) [3-carboxy-alpha-(3-mercaptopropyl)-5-methoxy-benzenepropanoic acid]: 13 nM; `O=C(CSCCCC(Cc1cc(C(=O)O)cc(-c2ccccc2)c1)C(=O)O)NO` (centres unmarked) [5-(2-Carboxy-5-hydroxycarbamoylmethyl-sulfanylpentyl)-biphenyl-3-carboxylic acid]: 1690 nM; `O=C(COc1cccc(-c2cccc(C(=O)O)c2)c1C(=O)O)NO` [3-Hydroxycarbamoylmethoxy-biphenyl-2,3′-dicarboxylic acid]: 27600 nM.

As for `O=C(O)c1ccccc1CS` [2-(mercaptomethyl)-benzoic acid], the IC50 is not below 100000 nM. `CC(C)C(SCCCC(Cc1cccc(C(=O)O)c1)C(=O)O)C(=O)NO` (centres unmarked) [3-[2-Carboxy-5-(1-hydroxycarbamoyl-2-methyl-propylsulfanyl)-pentyl]-benzoic acid]: the half-maximal inhibitory concentration (IC50) came out at 2800 nM.

For `O=C(O)c1ccc(COc2cccc(CCS)c2C(=O)O)cc1Br` [2-[(3-bromo-4-carboxyphenyl)methoxy]-6-(2-mercaptoethyl)-benzoic acid], the IC50 is 0.098 nM. Take `O=C(O)C(CCCS)Oc1ccccc1` (centres unmarked) [5-mercapto-2-phenoxy-pentanoic acid]: the IC50 was found to be 555 nM. For the molecule `O=C(O)C(CCCS)Cc1c(F)c(F)c(F)c(F)c1F` (stereo not drawn) [2,3,4,5,6-pentafluoro-alpha-(3-mercaptopropyl)-benzenepropanoic acid], the IC50 came to 1000 nM. As to `O=C(O)C(CCCS)Cc1ccc2ccccc2c1` (stereo not drawn) [alpha-(3-mercaptopropyl)-2-naphthalenepropanoic acid], the IC50 came out at 1130 nM. Still for that read-out and setting: next, `O=C(NO)c1ccc(Oc2ccc(F)cc2)c([N+](=O)[O-])c1` [4-(4-Fluoro-phenoxy)-N-hydroxy-3-nitro-benzamide]: not below 100000 nM. On the same count and under the same terms, next, `O=C(O)c1cc(CC(CCCS)C(=O)O)ccc1-c1ccccc1` (centres unmarked) [4-(2-carboxy-5-mercaptopentyl)-[1,1′-biphenyl]-2-carboxylic acid]: 18 nM; `O=C(O)c1cccc(COc2ccc(CCS)c(C(=O)O)c2)c1` [5-[(3-carboxyphenyl)methoxy]-2-(2-mercaptoethyl)-benzoic acid]: 84.5 nM. As to `O=C(O)c1ccc(COc2cccc(CCS)c2C(=O)O)c(Br)c1` [2-[(2-bromo-4-carboxyphenyl)methoxy]-6-(2-mercaptoethyl)-benzoic acid], the IC50 is 2.65 nM. In the case of `CC(C)(C)c1cc(CC(C(=O)O)C(=O)NO)cc(C(=O)O)c1` (centres unmarked) [3-tert-Butyl-5-(2-carboxy-2-hydroxycarbamoyl-ethyl)-benzoic acid], the IC50 was found to be 11900 nM. Turning to `CC(=O)Nc1cccc(OC(CCCS)C(=O)O)c1` (centres unmarked) [2-[3-(acetylamino)phenoxy]-5-mercapto-pentanoic acid], the IC50 is 27700 nM.

Consider `O=C(O)Cc1ccc(OC(CCCS)C(=O)O)cc1` (centres unmarked) [4-(1-carboxy-4-mercaptobutoxy)-benzeneacetic acid], for which the IC50 was found to be 82 nM.

Regarding `O=C(O)c1cccc(CC(CCCS)C(=O)O)c1` (single isomer, unassigned; (-)) [(−)-3-carboxy-alpha-(3-mercaptopropyl)-benzenepropanoic acid], the IC50 is 33.3 nM. Same read-out and setting: under `O=C(O)c1ccccc1COc1cccc(CCS)c1C(=O)O` [2-[(2-carboxyphenyl)methoxy]-6-(2-mercaptoethyl)-benzoic acid] stands 11.5 nM; under `O=C(O)c1cccc(CC(CCCS)C(=O)O)c1` (single isomer, unassigned; (+)) [(+)-3-carboxy-alpha-(3-mercaptopropyl)-benzenepropanoic acid], 7 nM; under `O=C(NO)c1ccc(C(=O)c2ccccc2C(=O)NO)cc1`, not below 100000 nM.

With `O=C(O)c1cc(CC(CCCS)C(=O)O)ccc1Cl` (stereo not drawn) [3-carboxy-4-chloro-alpha-(3-mercaptopropyl)-benzenepropanoic acid], the IC50 is 175 nM. Turning to `O=C(O)CNC(=O)c1cccc(CC(CCCS)C(=O)O)c1` (stereo not drawn) [3-[[(carboxymethyl)amino]carbonyl]-alpha-(3-mercaptopropyl)-benzenepropanoic acid], the IC50 amounted to 286 nM. On the same count and under the same terms, next, `O=C(O)c1ccc(-c2cccc(CCS)c2C(=O)O)cc1` [3-(2-mercaptoethyl)-[1,1′-biphenyl]-2,4′-dicarboxylic acid]: 4.28 nM; `O=C(O)c1c(F)c(F)c(CC(CCCS)C(=O)O)c(F)c1F` (stereo not drawn) [4-carboxy-2,3,5,6-tetrafluoro-alpha-(3-mercaptopropyl)-benzenepropanoic acid]: 660 nM.

Regarding `CCC(SCCC(Cc1cccc(C(=O)O)c1)C(=O)O)C(=O)NO` (centres unmarked) [3-[2-Carboxy-4-(1-hydroxycarbamoyl-propylsulfanyl)-butyl]-benzoic acid], the IC50 came to 19000 nM. The same measure, in the same setting: next, `O=C(CCCC(Cc1cccc(C(=O)O)c1)C(=O)O)NO` (centres unmarked) [3-(2-Carboxy-5-hydroxycarbamoyl-pentyl)-benzoic acid]: 66.3 nM; `O=C(CSCCc1cccc(OCc2ccc(C(=O)O)cc2)c1C(=O)O)NO`: 14000 nM; `O=C(CSCCC(Cc1cccc(C(=O)O)c1)C(=O)O)NO` (centres unmarked) [3-(2-Carboxy-4-hydroxycarbamoylmethyl-sulfanylbutyl)-benzoic acid]: 4900 nM.

Take `O=C(CSCCc1cccc(-c2cccc(C(=O)O)c2)c1C(=O)O)NO` [3-(2-1-Hydroxycarbamoyl-methylsulfanyl-ethyl)-biphenyl-2,3′-dicarboxylic acid]: the IC50 came out at 255 nM. On to `CC(C)(C)c1cc(CC(CCCS)C(=O)O)cc(C(=O)O)c1` (stereo not drawn) [3-carboxy-5-(1,1-dimethylethyl)-alpha-(3-mercaptopropyl)-benzenepropanoic acid], for which the IC50 was determined as 0.05 nM. Take `O=C(O)c1c(CCS)cccc1OCc1ccccc1` [2-(2-mercaptoethyl)-6-(phenylmethoxy)-benzoic acid]: the IC50 came to 11.5 nM. The same measure, in the same setting: under `O=C(CC(Cc1cccc(C(=O)O)c1)C(=O)O)NO` (centres unmarked) [3-(2-Carboxy-3-hydroxycarbamoyl-propyl)-benzoic acid] stands 693 nM; under `O=C(CCC(Cc1cccc(C(=O)O)c1)C(=O)O)NO` (centres unmarked) [3-(2-Carboxy-4-hydroxycarbamoyl-butyl)-benzoic acid], 47.8 nM; under `N#Cc1ccccc1-c1ccc(CC(CCCS)C(=O)O)cc1` (stereo not drawn) [4-(2-cyanophenyl)-alpha-(3-mercaptopropyl)-benzenepropanoic acid], 316 nM. Still for that read-out and setting: next, `O=C(O)c1ccc(Br)c(CC(CCCS)C(=O)O)c1` (stereo not drawn) [2-bromo-5-carboxy-alpha-(3-mercaptopropyl)-benzenepropanoic acid]: 3.33 nM; `O=C(CCSCCCC(Cc1cccc(C(=O)O)c1)C(=O)O)NO` (centres unmarked) [3-[2-Carboxy-5-(2-hydroxycarbamoyl-ethylsulfanyl)-pentyl]-benzoic acid]: 113 nM. Take `O=C(O)c1c(CCS)cccc1Oc1ccccc1` [2-(2-mercaptoethyl)-6-phenoxy-benzoic acid]: the IC50 was found to be 1150 nM.

Source of the values: US20040186081A1, “Naaladase inhibitors for treating opioid tolerance” (Guilford Pharmaceuticals Inc., priority 2003, published 2004).
